Measured values as given in patent publication US20090030024A1, “THIAZOLES AS FUNGICIDES” (priority 2005, published 2009).
Marks after values point to notes of the source that are not given here.

Test: logP determination by retention times (calibration with alkan-2-ones)
Settings: not given

Structure (SMILES)	chromatographic logP
CCc1nc(C)c(-c2ccnc(Nc3cccc(O)c3)n2)s1 [Example 150, 3-{[4-(2-ethyl-4-methyl-1,3-thiazol-5-yl)pyrimidin-2-yl]amino}phenol]	2.12
COCc1nc(C)c(-c2ccnc(Nc3ccc(C#N)cc3)n2)s1 [Example 179, 4-({4-[2-(methoxymethyl)-4-methyl-1,3-thiazol-5-yl]pyrimidin-2-yl}amino)benzonitrile]	2.57
COc1cccc(Nc2nccc(-c3sc(C)nc3C)n2)c1 [Example 183, 4-(2,4-dimethyl-1,3-thiazol-5-yl)-N-(3-methoxyphenyl)pyrimidine-2-amine]	2.64
Cc1nc(C)c(-c2ccnc(Nc3cccc([N+](=O)[O-])c3)n2)s1 [Example 184, 4-(2,4-dimethyl-1,3-thiazol-5-yl)-N-(3-nitrophenyl)pyrimidine-2-amine]	2.61
Cc1nc(C)c(-c2ccnc(Nc3ccc(F)c(C)c3)n2)s1 [Example 185, 4-(2,4-dimethyl-1,3-thiazol-5-yl)-N-(4-fluoro-3-methylphenyl)pyrimidine-2-amine]	3.07
COc1ccc(Nc2nccc(-c3sc(C)nc3C)n2)cn1 [Example 187, 4-(2,4-dimethyl-1,3-thiazol-5-yl)-N-(6-methoxypyridin-3-yl)pyrimidine-2-amine]	2.09
Cc1nc(C)c(-c2ccnc(Nc3cccc(C(F)(F)F)c3)n2)s1 [Example 188, 4-(2,4-dimethyl-1,3-thiazol-5-yl)-N-[3-(trifluoromethyl)phenyl]pyrimidine-2-amine]	3.3
Cc1nc(C)c(-c2ccnc(Nc3ccc(C(F)(F)F)cc3)n2)s1 [Example 189, 4-(2,4-dimethyl-1,3-thiazol-5-yl)-N-[4-(trifluoromethyl)phenyl]pyrimidine-2-amine]	3.56
COc1ccc(Nc2nccc(-c3sc(N)nc3C)n2)cc1OC [Example 202, 4-(2-amino-4-methyl-1,3-thiazol-5-yl)-N-(3,4-dimethoxyphenyl)pyrimidine-2-amine]	1.28
Cc1nc(N)sc1-c1ccnc(Nc2cccc(Cl)c2)n1 [Example 204, 4-(2-amino-4-methyl-1,3-thiazol-5-yl)-N-(3-chlorophenyl)pyrimidine-2-amine]	1.78
Cc1nc(N)sc1-c1ccnc(Nc2cccc([N+](=O)[O-])c2)n1 [Example 206, 4-(2-amino-4-methyl-1,3-thiazol-5-yl)-N-(3-nitrophenyl)pyrimidine-2-amine]	1.5
Cc1cc(Nc2nccc(-c3sc(N)nc3C)n2)ccc1F [Example 207, 4-(2-amino-4-methyl-1,3-thiazol-5-yl)-N-(4-fluoro-3-methylphenyl)pyrimidine-2-amine]	1.68
Cc1nc(N)sc1-c1ccnc(Nc2ccc(F)cc2)n1 [Example 208, 4-(2-amino-4-methyl-1,3-thiazol-5-yl)-N-(4-fluorophenyl)pyrimidine-2-amine]	1.56
Cc1nc(N)sc1-c1ccnc(Nc2cccc(C(F)(F)F)c2)n1 [Example 209, 4-(2-amino-4-methyl-1,3-thiazol-5-yl)-N-[3-(trifluoromethyl)phenyl]pyrimidine-2-amine]	1.97
COc1cc(Nc2nccc(-c3sc(C4CCCCC4)nc3C)n2)cc(OC)c1OC [Example 215, 4-(2-cyclohexyl-4-methyl-1,3-thiazol-5-yl)-N-(3,4,5-trimethoxyphenyl)pyrimidine-2-amine]	3.97
Cc1nc(C2CCCCC2)sc1-c1ccnc(Nc2cccc([N+](=O)[O-])c2)n1 [Example 216, 4-(2-cyclohexyl-4-methyl-1,3-thiazol-5-yl)-N-(3-nitrophenyl)pyrimidine-2-amine]	4.63
COc1ccc(Nc2nccc(-c3sc(C4CCCCC4)nc3C)n2)cn1 [Example 217, 4-(2-cyclohexyl-4-methyl-1,3-thiazol-5-yl)-N-(6-methoxypyridin-3-yl)pyrimidine-2-amine]	3.86
Cc1nc(C2CCCCC2)sc1-c1ccnc(Nc2ccc(C(F)(F)F)cc2)n1 [Example 218, 4-(2-cyclohexyl-4-methyl-1,3-thiazol-5-yl)-N-[4-(trifluoromethyl)phenyl]pyrimidine-2-amine]	5.62
Cc1nc(C2CCCCC2)sc1-c1ccnc(Nc2ccccc2)n1 [Example 219, 4-(2-cyclohexyl-4-methyl-1,3-thiazol-5-yl)-N-phenylpyrimidine-2-amine]	4.65
Cc1nc(C2CC2)sc1-c1ccnc(Nc2ccc3c(c2)OCCO3)n1 [Example 220, 4-(2-cyclopropyl-4-methyl-1,3-thiazol-5-yl)-N-(2,3-dihydro-1,4-benzodioxin-6-yl)pyrimidine-2-amine]	2.91
COc1ccc(OC)c(Nc2nccc(-c3sc(C4CC4)nc3C)n2)c1 [Example 221, 4-(2-cyclopropyl-4-methyl-1,3-thiazol-5-yl)-N-(2,5-dimethoxyphenyl)pyrimidine-2-amine]	3.71
COc1ccc(Nc2nccc(-c3sc(C4CC4)nc3C)n2)cc1OC [Example 223, 4-(2-cyclopropyl-4-methyl-1,3-thiazol-5-yl)-N-(3,4-dimethoxyphenyl)pyrimidine-2-amine]	2.6
COc1cccc(Nc2nccc(-c3sc(C4CC4)nc3C)n2)c1 [Example 224, 4-(2-cyclopropyl-4-methyl-1,3-thiazol-5-yl)-N-(3-methoxyphenyl)pyrimidine-2-amine]	3.28
Cc1nc(C2CC2)sc1-c1ccnc(Nc2cccc([N+](=O)[O-])c2)n1 [Example 225, 4-(2-cyclopropyl-4-methyl-1,3-thiazol-5-yl)-N-(3-nitrophenyl)pyrimidine-2-amine]	3.29
Cc1cc(Nc2nccc(-c3sc(C4CC4)nc3C)n2)ccc1F [Example 226, 4-(2-cyclopropyl-4-methyl-1,3-thiazol-5-yl)-N-(4-fluoro-3-methylphenyl)pyrimidine-2-amine]	3.71
Cc1nc(C2CC2)sc1-c1ccnc(Nc2ccc(F)cc2)n1 [Example 227, 4-(2-cyclopropyl-4-methyl-1,3-thiazol-5-yl)-N-(4-fluorophenyl)pyrimidine-2-amine]	3.31
COc1ccc(Nc2nccc(-c3sc(C4CC4)nc3C)n2)cn1 [Example 228, 4-(2-cyclopropyl-4-methyl-1,3-thiazol-5-yl)-N-(6-methoxypyridin-3-yl)pyrimidine-2-amine]	2.53
Cc1nc(C2CC2)sc1-c1ccnc(Nc2cccc(C(F)(F)F)c2)n1 [Example 229, 4-(2-cyclopropyl-4-methyl-1,3-thiazol-5-yl)-N-[3-(trifluoromethyl)phenyl]pyrimidine-2-amine]	4.04
Cc1nc(C2CC2)sc1-c1ccnc(Nc2ccc(C(F)(F)F)cc2)n1 [Example 230, 4-(2-cyclopropyl-4-methyl-1,3-thiazol-5-yl)-N-[4-(trifluoromethyl)phenyl]pyrimidine-2-amine]	4.2
Cc1nc(C2CC2)sc1-c1ccnc(Nc2ccccc2)n1 [Example 231, 4-(2-cyclopropyl-4-methyl-1,3-thiazol-5-yl)-N-phenylpyrimidine-2-amine]	3.26

Same assay, conditions: HPLC, reversed-phase C 18, EEC Directive 79/831 Annex V.A8; method *: 40° C., 0.1% aqueous formic acid and acetonitrile, linear gradient 10% to 95% acetonitrile

Structure (SMILES)	logP
Cc1nc(NC(C)(C)C)sc1-c1ccnc(Nc2ccc(O)cc2)n1 [Example 180, 4-({4-[2-(tert-butylamine)-4-methyl-1,3-thiazol-5-yl]pyrimidin-2-yl}amino)phenol]	1.67*

Same assay, conditions: logP(HCOOH), HCOOH

Structure (SMILES)	chromatographic logP
Cc1nc(C2CCCCC2)sc1-c1ccnc(Nc2cccc([N+](=O)[O-])c2)n1 [Example 216, 4-(2-cyclohexyl-4-methyl-1,3-thiazol-5-yl)-N-(3-nitrophenyl)pyrimidine-2-amine]	4.63
